# Laboratory results as given in patent US10202370B2, “Benzimidazole derivatives as selective proteine kinase inhibitors” (AB SCIENCE, priority 2013, dated 2019).
# Target: c-kit WT (Homo sapiens (Human), UniProt P10721)
# Assay: Proliferation assay (CellTiter-Blue) on BaF3 Kit WT cell line
# Type: cell-based
# Details: BaF3 Kit WT cell line (murine Ba/F3 expressing Human Kit WT, with murine SCF), 48 hours
# Procedure: Procedures of C-Kit WT Inhibition Assays:
# Colorimetric cell proliferation and viability assay (reagent CellTiter-Blue purchased from Promega cat N°G8081) was performed on BaF3 Kit WT cell line.
# A total of 2.10^4 cells/50 μl were seeded per well of a 96-wells plate. Treatment was initiated by addition of a 2× drug solution of ½ serial dilutions ranging from 0 to 10 μM. After incubating for 48 hours at 37° C., 10 μl of a ½ dilution of CellTiter-Blue reagent was added to each well and the plates were returned to the incubator for an additional 4 hours. The fluorescence intensity from the CellTiter-Blue reagent is proportional to the number of viable cells and data were recorded (544Ex/590Em) using a POLARstar OMEGA microplate reader (BMG LabteckSarl). A background control without cells was used as a blank. The positive control of the assay corresponds to the cell proliferation obtained in the absence of drug treatment (100% proliferation). Each sample was done in triplicate. The results were expressed as a percentage of the proliferation obtained in absence of treatment. All drugs were prepared as 20 mM stock solutions in DMSO and conserved at −80° C. Drug dilutions were made fresh in medium before each experiment. A DMSO control was included in each experiment.
# The cell line expressing Human Kit WT was derived from the murine IL3-dependent Ba/F3 proB lymphoid cells. Ba/F3 Kit WT cells were maintained in RPMI medium containing 10% FCS and supplemented with 250 ng/ml of recombinant murine SCF.
# c-kit WT, sequence (P10721 26-976): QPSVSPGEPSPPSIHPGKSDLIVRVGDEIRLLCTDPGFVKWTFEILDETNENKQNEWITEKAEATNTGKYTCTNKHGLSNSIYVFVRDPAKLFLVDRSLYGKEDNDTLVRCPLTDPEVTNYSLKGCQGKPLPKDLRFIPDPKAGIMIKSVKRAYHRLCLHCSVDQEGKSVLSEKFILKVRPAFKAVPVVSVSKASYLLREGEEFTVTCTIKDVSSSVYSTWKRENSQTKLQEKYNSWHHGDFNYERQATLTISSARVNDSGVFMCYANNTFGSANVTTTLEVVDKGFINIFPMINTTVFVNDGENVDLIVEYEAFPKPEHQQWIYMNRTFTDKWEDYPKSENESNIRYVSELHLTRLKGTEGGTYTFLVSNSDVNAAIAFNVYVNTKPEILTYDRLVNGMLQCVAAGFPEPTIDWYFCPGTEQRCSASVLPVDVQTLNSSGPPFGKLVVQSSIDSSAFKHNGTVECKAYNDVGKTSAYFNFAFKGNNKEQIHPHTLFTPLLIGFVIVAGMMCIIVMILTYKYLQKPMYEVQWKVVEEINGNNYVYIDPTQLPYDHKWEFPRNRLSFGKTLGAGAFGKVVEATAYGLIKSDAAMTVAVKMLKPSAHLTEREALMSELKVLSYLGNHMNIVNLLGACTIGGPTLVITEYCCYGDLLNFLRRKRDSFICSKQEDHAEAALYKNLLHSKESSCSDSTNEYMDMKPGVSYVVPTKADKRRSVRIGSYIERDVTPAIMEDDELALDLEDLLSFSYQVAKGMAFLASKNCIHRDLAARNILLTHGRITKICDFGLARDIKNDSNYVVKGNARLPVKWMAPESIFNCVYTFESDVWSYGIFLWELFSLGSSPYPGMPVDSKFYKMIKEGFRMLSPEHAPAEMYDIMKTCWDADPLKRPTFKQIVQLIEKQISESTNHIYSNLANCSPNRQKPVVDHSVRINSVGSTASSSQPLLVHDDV
row,IC50 [nM],SMILES
1,≤ 1000,"Cc1cc2nc(-c3ccc(C)c(C(F)(F)F)c3)[nH]c2cc1Nc1nc(-c2cccnc2)cs1 [Compound 056, [6-Methyl-2-(4-methyl-3-trifluoromethyl-phenyl)-3H-benzoimidazol-5-yl]-(4-pyridin-3-yl-thiazol-2-yl)-amine]"
2,1000 to 10000,"Cc1cc2[nH]c(-c3cccc(F)c3)nc2cc1Nc1nc(-c2cccnc2)cs1 [Compound 123, [2-(3-Fluoro-phenyl)-6-methyl-1H-benzoimidazol-5-yl] (4-pyridin-3-yl-thiazol-2-yl)-amine]"
3,1000 to 10000,"Cc1cc2nc(-c3ccc(F)cc3)[nH]c2cc1Nc1nc(-c2cccnc2)cs1 [Compound 060, [2-(4-Fluoro-phenyl)-6-methyl-1H-benzoimidazol-5-yl]-(4-pyridin-3-yl-thiazol-2-yl)-amine]"
4,≤ 1000,"Cc1cccc(-c2nc3cc(C)c(Nc4nc(-c5ccc(C#N)cc5)cs4)cc3[nH]2)c1 [Compound 074, 4-[2-(6-Methyl-2-m-tolyl-3H-benzoimidazol-5-ylamino)-thiazol-4-yl]-benzonitrile]"
5,1000 to 10000,"Cc1cc2c(cc1Nc1nc(-c3cccnc3)cs1)nc(-c1cccc(N3CCN(C)CC3)c1)n2C [Compound 095, {1,6-Dimethyl-2-[3-(4-methyl-piperazin-1-yl)-phenyl]-1H-benzoimidazol-5-yl}-(4-pyridin-3-yl-thiazol-2-yl)-amine]"
6,≤ 1000,"Cc1cc2nc(-c3cccc(OC(F)(F)F)c3)[nH]c2cc1Nc1nc(-c2ccncc2)cs1 [Compound 047, [6-Methyl-2-(3-trifluoromethoxy-phenyl)-3H-benzoimidazol-5-yl]-(4-pyridin-4-yl-thiazol-2-yl)-amine]"
7,≤ 1000,"Cc1ccc(-c2nc3cc(Nc4nc(-c5ccncc5)cs4)c(C)cc3[nH]2)s1 [Compound 079, [6-Methyl-2-(5-methyl-thiophen-2-yl)-1H-benzoimidazol-5-yl]-(4-pyridin-4-yl-thiazol-2-yl)-amine]"
8,1000 to 10000,"Cc1cc2nc(-c3cccc(C(F)F)c3)n(C)c2cc1Nc1nc(-c2cccnc2)cs1 [Compound 113, [2-(3-Difluoromethyl-phenyl)-3,6-dimethyl-3H-benzoimidazol-5-yl]-(4-pyridin-3-yl-thiazol-2-yl)-amine]"
9,≤ 1000,"Cc1cc2[nH]c(-c3cccc(C(C)C)c3)nc2cc1Nc1nc(-c2ccncc2)cs1 [Compound 150, [2-(3-Isopropyl-phenyl)-6-methyl-1H-benzoimidazol-5-yl]-(4-pyridin-4-yl-thiazol-2-yl)-amine]"
10,≤ 1000,"Cc1cc2nc(-c3ccc(CN4CCN(C)CC4)cc3)[nH]c2cc1Nc1nc(-c2cccnc2)cs1 [Compound 003, {6-Methyl-2-[4-(4-methyl-piperazin-1-ylmethyl)-phenyl]-3H-benzoimidazol-5-yl}-(4-pyridin-3-yl-thiazol-2-yl)-amine]"
11,1000 to 10000,"Cc1cccc(-c2nc3cc(C)c(Nc4nc(-c5cncnc5)cs4)cc3[nH]2)c1 [Compound 066, (6-Methyl-2-m-tolyl-1H-benzoimidazol-5-yl)-(4-pyrimidin-5-yl-thiazol-2-yl)-amine]"
12,1000 to 10000,"Cc1cc2nc(-c3cccc(OC(F)(F)F)c3)[nH]c2cc1Nc1nccc(-c2cccnc2)n1 [Compound 037, [6-Methyl-2-(3-trifluoromethoxy-phenyl)-3H-benzoimidazol-5-yl]-(4-pyridin-3-yl-pyrimidin-2-yl)-amine]"
13,1000 to 10000,"Cc1cc2nc(-c3cccc(C(F)(F)F)c3)[nH]c2cc1Nc1ncc(-c2cccnc2)o1 [Compound 007, [6-Methyl-2-(3-trifluoromethyl-phenyl)-3H-benzoimidazol-5-yl]-(5-pyridin-3-yl-oxazol-2-yl)-amine]"
14,≤ 1000,"Cc1cc2nc(-c3cccc(C(F)F)c3)[nH]c2cc1Nc1nc(-c2cncnc2)cs1 [Compound 061, [2-(3-Difluoromethyl-phenyl)-6-methyl-3H-benzoimidazol-5-yl]-(4-pyrimidin-5-yl-thiazol-2-yl)-amine]"
15,≤ 1000,"Cc1cc2nc(-c3cc(CN4CCCC4)cc(C(F)(F)F)c3)[nH]c2cc1Nc1nccc(-c2cccnc2)n1 [Compound 029, [6-Methyl-2-(3-pyrrolidin-1-ylmethyl-5-trifluoromethyl-phenyl)-3H-benzoimidazol-5-yl]-(4-pyridin-3-yl-pyrimidin-2-yl)-amine]"
16,≤ 1000,"Cc1cc2[nH]c(-c3cccc(S(C)(=O)=O)c3)nc2cc1Nc1nc(-c2ccc(C#N)cc2)cs1 [Compound 131, 4-{2-[2-(3-Methanesulfonyl-phenyl)-6-methyl-1H-benzoimidazol-5-ylamino]-thiazol-4-yl}-benzonitrile]"
17,≤ 1000,"Cc1cc2c(cc1Nc1nc(-c3ccncc3)cs1)nc(-c1cccc(F)c1)n2C [Compound 124, [2-(3-Fluoro-phenyl)-1,6-dimethyl-1H-benzoimidazol-5-yl]-(4-pyridin-4-yl-thiazol-2-yl)-amine]"

row,IC50 [nM],SMILES
1,≤ 1000,"Cc1cc2nc(-c3cc(CN4CCCCC4)cc(C(F)(F)F)c3)[nH]c2cc1Nc1nccc(-c2cccnc2)n1 [Compound 035, [6-Methyl-2-(3-piperidin-1-ylmethyl-5-trifluoromethyl-phenyl)-3H-benzoimidazol-5-yl]-(4-pyridin-3-yl-pyrimidin-2-yl)-amine]"
2,1000 to 10000,"Cc1cc2nc(-c3ccc(C(F)(F)F)cc3)[nH]c2cc1Nc1nc(-c2cccnc2)cs1 [Compound 021, [6-Methyl-2-(4-trifluoromethyl-phenyl)-3H-benzoimidazol-5-yl]-(4-pyridin-3-yl-thiazol-2-yl)-amine]"
3,≤ 1000,"FC(F)c1cccc(-c2nc3cc(Nc4nc(-c5cccnc5)cs4)ccc3[nH]2)c1 [Compound 087, [2-(3-Difluoromethyl-phenyl)-1H-benzoimidazol-5-yl]-(4-pyridin-3-yl-thiazol-2-yl)-amine]"
4,≤ 1000,"Cc1cc2c(cc1Nc1nc(-c3ccncc3)cs1)nc(-c1cccc(C(C)(C)C)c1)n2C [Compound 152, [2-(3-tert-Butyl-phenyl)-1,6-dimethyl-1H-benzoimidazol-5-yl]-(4-pyridin-4-yl-thiazol-2-yl)-amine]"
5,≤ 1000,"COc1cccc(-c2nc3cc(Nc4nc(-c5ccncc5)cs4)c(C)cc3n2C)c1 [Compound 125, [2-(3-Methoxy-phenyl)-1,6-dimethyl-1H-benzoimidazol-5-yl]-(4-pyridin-4-yl-thiazol-2-yl)-amine]"
6,≤ 1000,"Cc1cc2nc(-c3cccc(C(F)(F)F)c3)[nH]c2cc1Nc1nc(-c2cncnc2)cs1 [Compound 062, [6-Methyl-2-(3-trifluoromethyl-phenyl)-3H-benzoimidazol-5-yl]-(4-pyrimidin-5-yl-thiazol-2-yl)-amine]"
7,≤ 1000,"Cc1cc2nc(-c3cccc(N(C)C)c3)[nH]c2cc1Nc1nc(-c2cccnc2)cs1 [Compound 132, [2-(3-Dimethylamino-phenyl)-6-methyl-3H-benzoimidazol-5-yl]-(4-pyridin-3-yl-thiazol-2-yl)-amine]"
8,≤ 1000,"Cc1cc2c(cc1Nc1nc(-c3cccnc3)cs1)nc(-c1ccc(C(F)F)cc1)n2C [Compound 093, [2-(4-Difluoromethyl-phenyl)-1,6-dimethyl-1H-benzoimidazol-5-yl]-(4-pyridin-3-yl-thiazol-2-yl)-amine]"
9,≤ 1000,"C#Cc1cccc(-c2nc3cc(Nc4nc(-c5cccnc5)cs4)c(C)cc3n2C)c1 [Compound 146, [2-(3-Ethynyl-phenyl)-1,6-dimethyl-1H-benzoimidazol-5-yl]-(4-pyridin-3-yl-thiazol-2-yl)-amine]"
10,≤ 1000,"Cc1cc2c(cc1Nc1nc(-c3ccncc3)cs1)nc(-c1cccc(C(C)C)c1)n2C [Compound 151, [2-(3-Isopropyl-phenyl)-1,6-dimethyl-1H-benzoimidazol-5-yl]-(4-pyridin-4-yl-thiazol-2-yl)-amine]"
11,≤ 1000,"Cc1cccc(-c2nc3cc(Nc4nc(-c5ccncc5)cs4)c(C)cc3n2C(C)C)c1 [Compound 102, (1-Isopropyl-6-methyl-2-m-tolyl-1H-benzoimidazol-5-yl)-(4-pyridin-4-yl-thiazol-2-yl)-amine]"
12,≤ 1000,"Cc1cc2c(cc1Nc1nc(-c3ccc(C#N)cc3)cs1)nc(-c1cccc(C(C)(C)C)c1)n2C [Compound 144, 4-{2-[2-(3-tert-Butyl-phenyl)-1,6-dimethyl-1H-benzoimidazol-5-ylamino]-thiazol-4-yl}-benzonitrile]"
13,≤ 1000,"Cc1cc2c(cc1Nc1nc(-c3ccncc3)cs1)nc(-c1cc(F)cc(C(F)(F)F)c1)n2C [Compound 147, [2-(3-Fluoro-5-trifluoromethyl-phenyl)-1,6-dimethyl-1H-benzoimidazol-5-yl]-(4-pyridin-4-yl-thiazol-2-yl)-amine]"
14,1000 to 10000,"Cc1cc2nc(-c3cnc4ccccc4c3)[nH]c2cc1Nc1nccc(-c2cccnc2)n1 [Compound 017, (6-Methyl-2-quinolin-3-yl-3H-benzoimidazol-5-yl)-(4-pyridin-3-yl-pyrimidin-2-yl)-amine]"
15,1000 to 10000,"COc1ccc(-c2nc3cc(C)c(Nc4nc(-c5cccnc5)cs4)cc3[nH]2)cc1 [Compound 002, [2-(4-Methoxy-phenyl)-6-methyl-3H-benzoimidazol-5-yl]-(4-pyridin-3-yl-thiazol-2-yl)-amine]"
16,1000 to 10000,"Cc1cccc(-c2nc3cc(C)c(Nc4nccc(-c5cccnc5)n4)cc3[nH]2)c1 [Compound 012, (6-Methyl-2-m-tolyl-3H-benzoimidazol-5-yl)-(4-pyridin-3-yl-pyrimidin-2-yl)-amine]"
